Reference: US4141993A, “Compounds of diphenylcyclopentylamine type and methods for their preparation” (priority 1971, dated 1979)
Read-outs that look alike come from different tables or passages of the source.

What was measured:
[1] = first observable after; cited from earlier work
Dopa response = Dopa response potentiation test; assay type: in vivo, mice; conditions: score, pargyline pretreated; for L-DOPA potentiation, 10 mg/kg i.p., 1h: drug 1 h before 1-Dopa 100 mg/kg i.p.; for L-DOPA potentiation, 10 mg/kg i.p., 4h: drug 4 h before 1-Dopa 100 mg/kg i.p.
Protocol: Mice in groups of 3 are pretreated with Pargyline® 40 mg/kg p.o. about 10-16 hours before the test. […] 1-Dopa gives a characteristic syndrome which is scored as follows:
1. piloerection, slight salivation, slight increased motor activity
2. piloerection, salivation, marked increased motor activity and irritability
3. piloerection, profuse salivation, marked irritability and reactivity, jumping, squeaking, fighting.
The control groups are Amitriptyline (20 mg/kg i.p. 4 hours before 1-Dopa) and saline (1 hour before 1-Dopa). […] The test drugs were all tested at 10 mg/kg i.p.

mice [2] = experiment: Motor activity in mice (exploratory activity, locomotion cage); assay type: in vivo; conditions: Mus musculus, ip, 1 h, read-out: Motor activity ID50
Protocol: The exploratory activity of mice was recorded in a locomotion cage in which the movements were counted each time the animals cross-circuit an electrical current in the bottom plate. The activity was recorded for ten minutes one hour after the administration of the drug. The animals were tested individually. Groups of six mice were used and the mice were only used once. The activity was expressed in percent of the activity of control groups ran simultaneously.

mice [3] = experiment: Anticholinergic effect (mydriasis) in mice; assay type: in vivo
Protocol: (§1) Acute toxicity, behavior and anticholinergic effect (mydriasis) in mice
(§2) The compounds were given by intravenous route to 3 mice. […] Seizures, gait, sedation and grip strength were recorded. […] PD200 is the dose which increases the pupil by 200%.

uptake of tritiated 5-HT [4] = experiment: Inhibition of the uptake of tritiated 5-HT in vivo (drug i.p., uptake in midbrain slices); set-up: species or system mice; conditions: for ED50: Mus musculus, ip, 0.5 h, read-out: Inhibition (50 %) of uptake in vivo, 5-HT (ED50), i.p., half an hour before the animals were killed
Protocol: (§3) 1. Inhibition of the uptake of tritiated 5-HT in vitro and in vivo
(§4) The drugs were administered intraperitoneally half an hour before the animals were killed and the midbrain was taken out and sliced and incubated in a mixture consisting of, per 100 mg of brain slices, 0.2 μmole of ^3 H-5-HT and 1 μmole of glucose in 2 ml of Krebs-Henseleit buffer, pH 7.4. The incubation time was 5 minutes with 5 minutes of preincubation before ^3 H-5-HT was added. The radioactive ^3 H-5-HT taken up in the slices was extracted with ethanol and the amount was determined by liquid scintillation. […] Active uptake is defined as that part of the radioactive uptake which is inhibited by a high concentration of cocaine. All doses were given at least to four animals.

uptake of tritiated 5-HT [5] = experiment: Inhibition of the uptake of tritiated 5-HT in vitro (midbrain slices); assay type: biochemical, mice; conditions: for Inhibition (50 %) of uptake in vitro, 5-HT: 5-hydroxytryptamine 10^-7 M
Protocol: as §3
as §4, with “The drugs were administered intraperitoneally half an hour before the animals were killed and the midbrain was taken” left out, “0.2 μmole of ^3 H-5-HT and 1 μmole of glucose in” left out

[6] = system: uptake of tritiated noradrenaline; experiment: Inhibition of the uptake of tritiated noradrenaline in vitro (cortex slices); assay type: biochemical; conditions: for Inhibition (50 %) of uptake in vitro, NA: dl-noradrenaline 10^-7 M
Protocol: (§5) 2. Inhibition of the uptake of tritiated noradrenaline in vitro and in vivo
(§6) The method is found in European Journal of Pharmacology 2 (1967), 181- 186. The animals were killed half or one hour after the administration of the drugs in vivo (i.p.). The slices, made from cortex, were preincubated for five minutes and incubated with 0.1 μmole per ml of ^3 H-noradrenaline for further five minutes. The incubation mixture consisted of 0.2 μmole of ^3 H-NA and the brain slices in 2 ml of Krebs-Henseleits buffer, pH 7.4. The radioactive ^3 H-NA taken up in the slices was extracted with ethanol and the amount was determined by liquid scintillation. The dose producing 50 percent decrease of the active uptake (ED50) was determined graphically from dose response curves. At least four animals were used at each dose level.
Inhibition (50 %) of uptake
^2) Na = dl-noradrenaline 10^-7 M

5-HTP response = 5-HTP response potentiation test; assay type: in vivo, mice; conditions: for 5-HTP potentiation, 25 mg/kg i.p., 1h: drug 1 h before 5-HTP; for 5-HTP potentiation, 25 mg/kg i.p., 1h / 5-HTP potentiation, 25 mg/kg i.p., 4h: 0 = without effect; for 5-HTP potentiation, 25 mg/kg i.p., 4h: drug 4 h before 5-HTP
Protocol: 1. 5-HTP response potentiation test
Inhibition of the uptake of 5-HT potentiates the effects of administered 5-hydroxytryptophane (5-HTP) probably by increasing the amount of 5-HT at the receptor.
These small movements are quantitatively measured in an activity box, type Animex, which can distinguish between small and gross movements. The activity is measured during 20 minutes and only in the case the animals have a fullblown syndrome.

[7] = system: uptake of tritiated noradrenaline; experiment: Inhibition of the uptake of tritiated noradrenaline in vivo (drug i.p., uptake in cortex slices); conditions: for ED50: ip, 1 h, read-out: Inhibition (50 %) of uptake in vivo, NA (ED50), i.p., half or one hour before the animals were killed
Protocol: as §5
as §6, with “The” for “The method is found in European Journal of Pharmacology 2 (1967), 181- 186. The”

rats = experiment: Drug induced arrhythmia in rats: ECG changes and LD50; assay type: in vivo
Source text: (§7) Drug Induced Arrhythmia in Rats: ECG changes and LD50
(§8) Rats were infused intravenously with test drugs and relevant reference compounds. The doses are increased stepwise. The first dose causing ECG changes of any type was noted, and thereafter the doses were increased up to the lethal dose.

[8] = as above; assay type: in vivo; conditions: in vivo, iv; i.v. infusion, rat, stepwise increased doses
Source text: as §7, §8

uptake of tritiated 5-HT [9] = experiment: Inhibition of the uptake of tritiated 5-HT in vivo (drug i.p., uptake in midbrain slices); set-up: species or system mice
Acute toxicity in mice = conditions: mouse, in vivo, iv, within 24 hours
Protocol: as §1, §2

In the case of `CN(C)CCCN1c2ccccc2CCc2ccccc21` [Imipramine, imipramine, reference compound], the “onset of antidepressive effect” value [1] is listed as 3 weeks, the “L-DOPA potentiation, 10 mg/kg i.p., 1h” value (Dopa response) is listed as 2 and the “L-DOPA potentiation, 10 mg/kg i.p., 4h” value (Dopa response) is listed as 1. The ED50 (mice [2]) was 45 mg/kg, the “Mydriasis PD200” value (mice [3]; i.v., 10 minutes after injection, dose which increases the pupil by 200%) was 13 mg/kg and the ED50 (uptake of tritiated 5-HT [4]) was 24 mg/kg. The “Inhibition (50 %) of uptake in vitro, 5-HT” value (uptake of tritiated 5-HT [5]) was 0.10 µg/mL, the “Inhibition (50 %) of uptake in vitro, NA” value [6] was 0.06 µg/mL and the “potentiation of dl-5-HTP by reference, in words” value (5-HTP response; control group) was “constantly potentiated dl-5-HTP”. For the same molecule, the “5-HTP potentiation, 25 mg/kg i.p., 1h” value (5-HTP response) was 25, the “5-HTP potentiation, 25 mg/kg i.p., 4h” value (5-HTP response) was 0 and the ED50 [7] was 6 mg/kg.
In the case of `NC1CCC(c2ccccc2)(c2ccccc2)C1` (stereo not shown) [PUB 105, 1-Amino-3,3-diphenylcyclopentane], the “ECG changes i.v. rat (first dose causing ECG changes of any type)” value (rats; i.v. infusion) was 14, the “dose causing ECG changes relative to that of imipramine” value (rats; i.v., rat) was 3 times and the LD50 [8] was 58 mg/kg. For the same molecule, the “L-DOPA potentiation, 10 mg/kg i.p., 1h” value (Dopa response) was 3, the “L-DOPA potentiation, 10 mg/kg i.p., 4h” value (Dopa response) was 3 and the ED50 (mice [2]; i.p., one hour after administration) was greater than 50 mg/kg. The “uptake inhibition still pronounced after” value (uptake of tritiated 5-HT [9]) was 16 h, the “time of maximal uptake inhibition” value (uptake of tritiated 5-HT [9]; uptake inhibition increases with time) was “four” and the “duration of inhibition of the uptake mechanism compared with imipramine” value (uptake of tritiated 5-HT [9]; uptake of 5-HT and noradrenaline) was “much longer time than does the reference substance imipramine”. The “Mydriasis PD200” value (mice [3]; mouse, in vivo, iv, 10 min) was 19 mg/kg, the ED50 (uptake of tritiated 5-HT [4]) was 10 to 20 mg/kg and the “inhibition of uptake of 5-hydroxytryptamine in vivo, in words” value (uptake of tritiated 5-HT [4]; in vivo) was “strong inhibition”. The “Inhibition (50 %) of uptake in vitro, 5-HT” value (uptake of tritiated 5-HT [5]) was 0.18 µg/mL, the “inhibition of uptake of 5-hydroxytryptamine in vitro, in words” value (uptake of tritiated 5-HT [5]; in vitro) was “potent inhibitors” and the “Inhibition (50 %) of uptake in vitro, NA” value [6] was 0.15 µg/mL. For the same molecule, the “inhibition of uptake of noradrenaline in vitro, in words” value ([6]; in vitro) was “potent inhibitors”, the LD50 at 24 h (Acute toxicity in mice) was 22 mg/kg and the “5-HTP potentiation, 25 mg/kg i.p., 1h” value (5-HTP response) was 12.5. The “5-HTP potentiation, 25 mg/kg i.p., 4h” value (5-HTP response) was 25, the “inhibition of uptake of noradrenaline in vivo, in words” value ([7]; in vivo) was “strong inhibition” and the ED50 [7] was 20 mg/kg. For the same molecule, the selectivity towards noradrenaline ([7]; uptake inhibition, compared with imipramine) was “substantially nonselective ability towards noradrenaline”.
